Assay results published in patent US12509460B2 (Skyhawk Therapeutics, Inc., priority 2019, dated 2025).
Read-outs that look alike come from different tables or passages of the source.

Key:
[1] = tested on: SMN protein in spinal muscular atrophy (SMA) patient fibroblasts (GM03813, Coriell); assay: SMN protein assay, Mesoscale Discovery (MSD); format: cell-based, human; conditions: for EC50: read-out: SMN2 protein EC50
How it was run: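 Absolute SMN levels were quantified by MSD against an SMN protein standard curve (1 μg/ml to 19.5 pg/ml) run on each plate. Samples were lysates of GM03813 patient fibroblasts (7000 cells/well) treated 48 hours with compound doses from 2.5 μM down to 0.6 nM.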

[2] = tested on: mHTT protein in GM04724 (CAG 70/20) Huntington's disease patient lymphoblast cells; assay: mHTT protein assay, 2B7-MW1 assay via Mesoscale Discovery (MSD); format: cell-based, human
How it was run: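 Signal from the 2B7-MW1 antibody pair on MSD, rising with polyQ length and smaller HTT fragments, measured mHTT after 48 h compound exposure (0.6 nM–10 μM) in GM04724 cells. A parallel replicate plate gave CellTiter Glo viability.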

[3] = Quantitative splicing assay (HTT), qPCR; format: cell-based, human; conditions: Homo sapiens; GM04724 lymphoblasts, 24 h, qPCR; read-out: HTT Splicing: E49-50 EC50
How it was run: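 TaqMan qPCR on cell-lysate cDNA quantifies cryptic-exon inclusion from HTT intron 49. Lymphoblasts plated at 50,000 cells/well had received compound for 24 h, 0.15 nM-2.5 uM range, 0.1% DMSO.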

MDR1 (P-gp) = assay: in vitro; conditions: dog, MDCK-MDR1, pH 7.4
MDR1 = assay: in vitro; conditions: dog, MDCK-MDR1, pH 7.4
[4] = tested on: MDR1-MDCK cell monolayers; conditions: dog, MDCK-MDR1, 120 min, 5 μM, pH 7.4
[5] = tested on: SMN FL and SMN Δ7 in spinal muscular atrophy (SMA) patient fibroblasts (GM03813, Coriell); assay: Quantitative splicing assay (SMN), qPCR; format: cell-based, human; conditions: Homo sapiens, Fibroblast; SMA patient fibroblasts GM03813, 24 h, qPCR; read-out: SMN2 Splicing FL EC50
Method: Spinal muscular atrophy (SMA) patient fibroblasts (GM03813, Coriell) are plated in 96-well plates at 50,000 cells/well. […] Treated cells are lysed and cDNA synthesized using the Fast Advanced Cells-to-Ct kit (Thermofisher A35378) according to the manufacturer's instructions. 2 μL of each cDNA are used in qPCR reactions. […] Reactions are run in a Quant Studio 6 qPCR instrument with default settings.

[6] = SMA patient fibroblasts GM03813, 48 hours, MSD
[7] = GM04724 Huntington's disease patient lymphoblasts
[8] = SMA patient fibroblasts (GM03813), 48 hours
[9] = GM04724 (CAG 70/20) Huntington's disease patient lymphoblasts

Structure (SMILES)	EC50 [1, 6] [nM]	EC50 [2, 7] [nM]	EC50 [3] [nM]	Papp A→B at 120 min, 5 μM (MDR1 (P-gp)) [×10⁻⁶ cm/s]	Papp B→A at 120 min, 5 μM (MDR1 (P-gp)) [×10⁻⁶ cm/s]	efflux ratio at 120 min, 5 μM (MDR1)	MDCK-MDR1: % Recov A-B [4] [%]	MDCK-MDR1: % Recov B-A [4] [%]	EC50 [5] [nM]	SMN2 protein EC50 [1, 6]	mHTT protein EC50 [2, 7]	SMN2 protein EC50 [1, 8]	mHTT protein EC50 [2, 9]	EC50 [1, 8] [nM]	EC50 [2, 9] [nM]
Cn1cnc2cc(-c3ccc(N(C4CC4)[C@@H]4C[C@H]5CC[C@H](N5)[C@@H]4F)nn3)c(O)cc2c1=O [Compound 56A, 7-(6-(cyclopropyl((1S,2S,3R,5R)-2-fluoro-8-azabicyclo[3.2.1]octan-3-yl)amino)pyridazin-3-yl)-6-hydroxy-3-methylquinazolin-4(3H)-one]	101 to 500	101 to 500	10 to 501	0.92	51.4	56	83	83	–	–	–	–	–	–	–
CNC(=O)c1cc(O)c(-c2ccc(N(C)[C@@H]3C[C@H]4CC[C@H](N4)[C@@H]3F)nn2)cc1F [Compound 47A, 2-fluoro-4-(6-(((1S,2S,3R,5R)-2-fluoro-8-azabicyclo[3.2.1]octan-3-yl)(methyl)amino)pyridazin-3-yl)-5-hydroxy-N-methylbenzamide]	101 to 500	101 to 500	–	1.45	49.3	34	98	108	501 to 10000	–	–	–	–	–	–
CN(c1ccc(-c2cc(C#N)ccc2O)nn1)[C@H]1C[C@@H]2CC[C@@H](N2)[C@H]1F (single isomer, unassigned) [Compound 70B]	–	101 to 500	10 to 501	3.84	58.1	15	95	100	–	E (501 ≤ E ≤ 10.000)	–	–	–	–	–
CN(c1ccc(-c2cc3occc(=O)c3cc2O)nn1)[C@H]1C[C@@H]2CC[C@H]([C@H]1F)N2C (single isomer, unassigned) [Compound 94B]	101 to 500	–	–	4.47	41.2	9	73	83	–	–	E (501 ≤ E ≤ 10.000)	–	–	–	–
CN(c1ccc(-c2cc(C#N)ccc2O)nn1)[C@@H]1C[C@H]2CC[C@H](N2)[C@@H]1F (single isomer, unassigned) [Compound 70A]	101 to 500	–	–	3.17	60.2	19	86	89	–	–	E (501 ≤ E ≤ 10.000)	–	–	–	–
CN(c1ccc(-c2ccc(Oc3cnn(C)c3)cc2O)nn1)[C@@H]1C[C@H]2CC[C@H](N2)[C@@H]1F (single isomer, unassigned) [Compound 91A]	101 to 500	–	–	4.19	62.8	15	84	82	–	–	E (501 ≤ E ≤ 10.000)	–	–	–	–
CN(c1ccc(-c2cc3oc(C(=O)N4CCC4)cc3cc2O)nn1)[C@@H]1C[C@H]2CC[C@@H]([C@@H]1F)N2C [Compound 107A, azetidin-1-yl(6-(6-(((1S,2S,3R,5R)-2-fluoro-8-methyl-8-azabicyclo[3.2.1]octan-3-yl)(methyl)amino)pyridazin-3-yl)-5-hydroxybenzofuran-2-yl)methanone]	–	–	–	1.27	55.1	43	80	82	–	–	–	E (501 ≤ E ≤ 10.000)	E (501 ≤ E ≤ 10.000)	–	–
CN(c1ccc(-c2cc3cnccc3cc2O)nn1)[C@@H]1C[C@H]2CC[C@@H]([C@@H]1F)N2C [Compound 93A, 7-(6-(((1S,2S,3R,5R)-2-fluoro-8-methyl-8-azabicyclo[3.2.1]octan-3-yl)(methyl)amino)pyridazin-3-yl)isoquinolin-6-ol]	101 to 500	–	–	5.27	17.9	3	50	70	–	–	E (501 ≤ E ≤ 10.000)	–	–	–	–
CN(c1ccc(-c2cc3cccnc3cc2O)nn1)[C@H]1C[C@@H]2CC(F)(F)[C@H](C1)N2 [Compound 45B, 6-(6-(((1R,3S,5S)-6,6-difluoro-8-azabicyclo[3.2.1]octan-3-yl)(methyl)amino)pyridazin-3-yl)quinolin-7-ol]	–	–	–	10.2	45.3	4	95	111	–	E (501 ≤ E ≤ 10.000)	E (501 ≤ E ≤ 10.000)	–	–	–	–
CN(c1ccc(-c2ccc(-n3ccnc3)cc2O)nn1)[C@H]1C[C@@H]2CC(F)(F)[C@H](C1)N2 [Compound 13B, 2-(6-(((1R,3S,5S)-6,6-difluoro-8-azabicyclo[3.2.1]octan-3-yl)(methyl)amino)pyridazin-3-yl)-5-(1H-imidazol-1-yl)phenol]	–	101 to 500	–	9.96	55.7	6	90	97	–	E (501 ≤ E ≤ 10.000)	–	–	–	–	–
CN(c1ccc(-c2cc3cc[nH]c(=O)c3s2)nn1)[C@H]1C[C@@H]2CC[C@@H](N2)[C@H]1F (single isomer, unassigned) [Compound 66B]	–	–	–	0.07	4.64	68	98	98	–	E (501 ≤ E ≤ 10.000)	E (501 ≤ E ≤ 10.000)	–	–	–	–
CN(c1ccc(-c2cc3ncn(CC(F)(F)F)c(=O)c3cc2O)nn1)[C@H]1C[C@@H]2CCC[C@H]([C@H]1F)N2C (single isomer, unassigned) [Compound 109B]	–	–	–	2.39	63.3	26	74	87	–	–	–	E (501 ≤ E ≤ 10.000)	E (501 ≤ E ≤ 10.000)	–	–
CN(c1ccc(-c2cc3ccn(C)c(=O)c3s2)nn1)[C@@H]1C[C@H]2CC[C@H](N2)[C@@H]1F (single isomer, unassigned) [Compound 67A]	–	–	–	0.42	37.9	90	94	99	–	E (501 ≤ E ≤ 10.000)	E (501 ≤ E ≤ 10.000)	–	–	–	–
Cc1nc2cc(-c3ccc(N(C)[C@@H]4C[C@H]5CC[C@@H]([C@@H]4F)N5C)nn3)c(O)cc2c(=O)n1C [Compound 105A, 7-(6-(((1S,2S,3R,5R)-2-fluoro-8-methyl-8-azabicyclo[3.2.1]octan-3-yl)(methyl)amino)pyridazin-3-yl)-6-hydroxy-2,3-dimethylquinazolin-4(3H)-one]	–	–	–	0.58	56.9	99	105	115	–	–	–	–	–	101 to 500	101 to 500
